The assay concerns the target T1, PfCRT^Dd2_M343L (Plasmodium falciparum, UniProt Q8IBZ9, A220S/I356T/K76T/M343L/M74I/N326S/N75E/Q271E/R371I).
T1 construct: expressed in transfected cells; host or cells: Xenopus laevis oocytes injected with in vitro transcribed RNA (pSP64T)
T1 sequence (Q8IBZ9 1-424 M74I/N75E/K76T/A220S/Q271E/N326S/M343L/I356T/R371I): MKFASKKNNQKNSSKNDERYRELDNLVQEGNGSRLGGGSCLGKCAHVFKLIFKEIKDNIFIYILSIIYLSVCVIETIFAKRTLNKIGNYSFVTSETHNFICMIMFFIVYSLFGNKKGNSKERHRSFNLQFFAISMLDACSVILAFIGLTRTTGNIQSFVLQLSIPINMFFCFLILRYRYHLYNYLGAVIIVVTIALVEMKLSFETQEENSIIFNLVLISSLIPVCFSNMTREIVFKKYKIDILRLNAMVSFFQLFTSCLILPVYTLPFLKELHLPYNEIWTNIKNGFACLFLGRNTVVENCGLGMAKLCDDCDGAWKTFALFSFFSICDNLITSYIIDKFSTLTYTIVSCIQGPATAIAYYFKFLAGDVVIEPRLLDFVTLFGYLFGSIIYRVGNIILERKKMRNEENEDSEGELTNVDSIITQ
Put plainly: Verapamil inhibition of PfCRT-mediated CQ and PPQ transport in oocytes, PfCRT^Dd2_M343L. The class given is cell-based. Particulars: individual replicates (S3 Fig). Here is the method:
In all cases, the PfCRT-mediated CQ and PPQ transport was inhibited in the presence of 100 μM verapamil (S3 Fig).
Drug transport assays were performed as previously described. Briefly, measurements of radiolabeled drug uptake were made over 1 h, unless otherwise specified. […] Where specified, one or more unlabeled drugs were also present at the indicated concentrations. The direction of drug transport in the assays is from the extracellular medium (pH 6) into the oocyte cytosol (pH 7.2), which corresponds to the efflux of CQ or PPQ from the acidic digestive vacuole (pH 5.2) into the parasite cytosol (pH 7.2). The uptake assays were terminated by removing the oocytes from the reaction medium and washing them three times with 2 mL of ice-cold ND96 buffer. Each oocyte was transferred to a separate scintillation vial and lysed by the addition of 200 μL of a 5% SDS solution. The radioactivity in the sample was measured using a liquid scintillation analyser Tri-Carb 4910 TR (PerkinElmer). Water-injected oocytes were analyzed in parallel as a negative control. The buffer from each condition was measured in duplicate in parallel to each experiment to transform counts per minute into pmol of drug. Drug uptake attributable to PfCRT was determined by subtracting the background uptake from water-injected oocytes from that of PfCRT-expressing oocytes. In all cases, at least three independent experiments were performed on oocytes from different frogs, and for each condition in an experiment, measurements were made from 10 oocytes per treatment.
Supplementary file ppat.1011436.s006.tif: S3 Fig Verapamil inhibits PfCRT-mediated transport of CQ and PPQ. […] Left panels, data is shown as individual biological replicates (coloured symbols) overlaid onto bars representing the Mean ± S.E.M. (error bars). A one-tailed Student’s t-test was performed between untreated (no VP) and treated (+ 100 μM VP) samples, and the obtained p values are shown. Right panels, the uptake in VP-treated samples was divided by the uptake in their corresponding untreated pairs and subtracted from 100% to get the percentage of uptake inhibition mediated by the presence of 100 μM verapamil in the extracellular medium. Error bars are S.E. (TIF) Click here for additional data file.

Molecules are shown by their SMILES. Several values for one entry are separate records, joined by “and”; a condition that tells them apart may be missing. Equal entries are not always repeated.

As for `Clc1ccc2c(N3CCN(CCCN4CCN(c5ccnc6cc(Cl)ccc56)CC4)CC3)ccnc2c1` [PPQ, piperaquine], the “PfCRTDd2_M343L-mediated PPQ transport” value (50 µM PPQ + 100 µM VP) was 22.37 pmol oocyte-1 h-1 and 37.53 pmol oocyte-1 h-1 and 41.81 pmol oocyte-1 h-1 and 17.67 pmol oocyte-1 h-1. With `CCN(CC)CCCC(C)Nc1ccnc2cc(Cl)ccc12` (stereo not drawn) [CQ, chloroquine], the “PfCRTDd2_M343L-mediated CQ transport” value reads like this: (50 µM CQ + 100 µM VP) 1.630 pmol oocyte-1 h-1 and 0.990 pmol oocyte-1 h-1 and 2.400 pmol oocyte-1 h-1; (50 µM CQ) 2.130 pmol oocyte-1 h-1 and 3.200 pmol oocyte-1 h-1 and 2.380 pmol oocyte-1 h-1 and 2.370 pmol oocyte-1 h-1.

These data come from article PMC10281575, “PfCRT mutations conferring piperaquine resistance in falciparum malaria shape the kinetics of quinoline drug binding and transport” (PLOS Pathogens, 2023).
